Measured values published in patent US12370210B2, “Carbon monoxide as a treatment for neurodegenerative disease” (The General Hospital Corporation, priority 2019, dated 2025).

System: mouse MPTP toxin model
Assay: Mouse MPTP toxin model, striatal DA by HPLC and TH+ neuron counts after inhaled CO
Format: in vivo
Excerpt: FIGS. 7A-C. Effect of single dose inhaled CO in the MPTP model. CO (225 ppm; 1 hr) or air (1 hr) administered 1 hr after MPTP or saline injection (normal control saline data not shown; no difference between groups in normal control animals). Animal sacrifice 5 days after MPTP. A. CO preserved striatal dopamine (DA) (P<0.03, t-test; 22 mice/grp). Striatal DA levels measured with HPLC, B. CO reduced loss of substantia nigra pars compacta (SNpc) tyrosine hydroxylase-positive (TH+) neurons. C. Stereological nigral TH+ neuron counts after CO treatment or air (P<0.05, t-test). Mean±std error.
We also employed a short-term regimen of the widely used^5253 MPTP toxin model in which DA loss ensues within 5-8 days of MPTP. We elected to initiate iCO treatment only after MPTP exposure in order to model protective treatment of human PD, which begins only after disease onset. We exposed mice to MPTP (40 mg/kg, i.p.)^54,55 or saline (study control) and then treated with a single dose of either iCO (225 ppm) or air (negative control) for 1 hr, for 4 total groups: 1) MPTP/CO (225 ppm; 1 hr), 2) MPTP/air (1 hr), 3) saline/CO (225 ppm; 1 hr), 4) saline/air (1 hr). Five days after MPTP exposure, we measured DA levels in the striata via HPLC and counted TH+ neurons in all groups. MPTP mice treated with CO had ˜46% higher DA levels than those treated with air (2-tailed t-test, p=0.028; FIG. 7A). […] Critically, for TH+ neurons, MPTP mice treated with iCO had ˜22% more TH+ neurons than those treated with air (p<0.05; FIGS. 7B-C).

Question: How did the “striatal DA levels higher than air-treated MPTP mice” value (MPTP 40 mg/kg i.p., CO 225 ppm 1 hr, single dose 1 hr after MPTP, 5 days after MPTP, p=0.028) turn out when `[C-]#[O+]` [CO, carbon monoxide] was run?
Answer: ~46%

Question: What about the “more TH+ neurons than air-treated MPTP mice” value (MPTP 40 mg/kg i.p., iCO 225 ppm 1 hr, 5 days after MPTP, p<0.05) of the same molecule?
Answer: ~22%

Question: And the “striatal DA levels in saline-treated mice” value (saline instead of MPTP, iCO 225 ppm 1 hr, n=22 per group, p>0.05 vs air)?
Answer: 97.0 ± 2.4 pmol/mg

Question: What about the “TH+ cell counts in saline-treated mice” value (saline instead of MPTP, iCO 225 ppm 1 hr, p>0.05 vs air) of the same molecule?
Answer: 7,437±545
